Literature values, collected in patent publication US20160143861A1, “COMPOSITIONS COMPRISING HYDROXYTYROSOL, RESVERATROL, LYCOPENE, FLAVANOLS, AND/OR FLAVONOIDS AND USE THEREOF” (SPECIALTY NUTRITION GROUP, INC., priority 2013, published 2016).

time of peak plasma concentration after ingestion: 5 to 10 min
Compound: OCCc1ccc(O)c(O)c1 [Hydroxytyrosol]
